Read-outs that look alike come from different tables or passages of the source.
Experiments:
[1] = tested on: primary mouse kidney proximal tubule epithelial cells; experiment: Nitrite accumulation (Griess reagent) in PTE cells stimulated with LPS and γ-IFN; assay type: cell-based; conditions: for nitrite production relative to the LPS and γ-IFN-stimulated cells: measured at 24 h; for effect on LPS and γ-IFN-induced nitrite (NO) production: agent alone on stimulated cells, nitrite at 24 h
Experimental: Cell culture. […] Clin. Invest. 91:2138-43). Briefly, slices of cortex from decapsulated kidneys were washed in unsupplemented RPMI 1640 and cut int 1-2 mm^3 pieces, which were then incubated for 20 min. at 37° C. in Krebs-Henseleit buffer (Sigma Chemical Co., St. Louis, Mo.) supplemented with 10 mM HEPES (pH 7.5), 1 g/l D-glucose, 200 mg/1 sodium pyruvate, 0.125 mg/ml collagenase (Type 1A, Sigma), and 0.6 U/ml dispase (Boehringer Mannheim Biochemica, Indianapolis, Ind.). The digested cortex was centrifuged at 70×g for 3 min and the cells resuspended in RPMI 1640 supplemented with 10 mM HEPES (pH 7.5), 5 μg/ml human transferrin, 50 nM dexamethasone, 5 μg/ml insulin (Gibco, Gaithersberg, Md.), 3% fetal bovine serum, 100 U/ml penicillin and 100 μg/ml streptomycin. For NO measurements, cells were subcultured into 24-well culture plates (Linbro, Hamden, Conn.) at 5×10^4 cells/16-mm well and incubated overnight. After removal of the medium, the cells were washed 3 times with Dulbecco's phosphate buffered saline (Sigma D5652), and re-fed with phenol red-free RPMI 1640 medium containing 2 mM […] and 10 μg/ml tetrahydrobiopterin (ICN Biochemicals, Cleveland, Ohio) in the presence or absence of 100 ng/ml lipopolysaccharide (LPS) (Sigma) and 100 U/ml recombinant mouse γ-interferon (γ-IFN). Measurement of NO (as NO2^-) production. Nitric oxide is a short-lived reactive nitrogen intermediate that in aqueous solution in the absence of oxyhemoproteins or superoxide, is oxidized primarily to nitrite (Ignarro et al., 1993, Proc. Natl. Acad. Sci. U.S.A. 90:8103-07). Under such conditions NO production can be assessed by the accumulation of nitrite in the medium. […] Biochem. 126:131-138).

[2] = tested on: constitutive nitric oxide synthase (cNOS) mRNA; experiment: Northern blot analysis of cNOS mRNA in PTE cells; assay type: cell-based, mouse; conditions: 12 h
Experimental: FIGS. 8A and 8B. Norther blot analysis of constitutive nitric oxide synthase (cNOS) mRNA expression. (A) Autoradiogram of RNA separated by agarose-formaldehyde gel electrophoresis, transfered to nylon membranes, and probed with ^32 P-labelled oligonucleotide probes as described in Example 2, infra. (B) Reltive intensities of cNOS to 18S rRNA quantified by densitometry. Cells were treated with buffer, angiotensin (1 μM), angiotensin with osteopontin (0.1 and 0.001 nM), or ionomycin, as indicated in B. The blots in (A) correspond to the bars in (B).
Northern Blot Analysis. Total RNA was isolated using TRI reagent (Molecular Research Center, Cincinnati, Ohio) after 12 h stimulation in the medium (see Example 1). Rat brain constitutive nitric oxide synthase (cNOS) cDNA was obtained as described (Bredt et al., 1991, Nature 351:714-718). Five μg of total RNA was separated on an agarose-formaldehyde gel, transferred onto a nylon membrane (GeneScreen Plus, NEN Research Products, Du Pont, Boston, Mass.) and hybridized with a ^32 P-labeled cNOS cDNA probe. The blot was washed 3 times with 0.5×SSC, 0.1% SDS at 65° C. and autoradiographed for 1 to 3 days. The membrane was stripped and successively hybridized to a mouse 18S rRNA probe. The relative intensities of cNOS to 18S rRNA in the resulting autoradiograms were quantified by densitometry (Pharmacia LKB, UltraScan XL).

[3] = tested on: mouse primary kidney PTE cells; experiment: Nitrite production over 3 days in PTE cells treated with angiotensin II; assay type: cell-based; conditions: for effect on A II-induced nitrite production: 3 days incubation with A II; for nitrite production: agent alone, 3 days incubation
Experimental: FIG. 7. Angiotensin II enhances nitrite production by a process that can be reversed by OPN in PTE cells. Primary mouse kidney proximal tubule epithelial cells were grown as described in the Examples, infra. Cell were cultured and the medium collected after three days of growth in medium with the indicated supplements.
Preparation of Cells. CD-1 mice aged 4-6 weeks were obtained from Laboratory Animal Services of Nelson Biological Laboratory, Rutgers University, New Jersey. Primary mouse kidney proximal tubule epithelial (PTE) cells were prepared as previously described in Example 1. For NO measurement, cells were subcultured into 24-well tissue culture plates (Linbro, Hamden, Conn.) at 5×10^4 cells per well and incubated overnight for cell attachment. After removal of the medium, the cells were washed twice with Dulbecco's phosphate buffered saline (0.2 g/l KCl, 0.2 g/l KH2 PO4, 8 g/l NaCl, 1.15 g/l Na2 HPO4) and re-fed phenol red-free RPMI 1640 medium (Gibco) containing 10 μg/ml tetrahydrobiopterin (ICN Biochemicals, Cleveland Ohio).
Measurement of NO Production. Synthesis of NO in the medium over a 3-day period was determined by the accumulation of nitrite, a stable oxidized product of NO (Marletta, 1988, Chem. Res. Toxicol. 1:249-257). Nitrite was measured with the Griess reagents using sodium nitrite as standard, as described in Example 1.

[4] = tested on: inducible nitric oxide synthase (iNOS) mRNA; experiment: Northern blot analysis of iNOS mRNA in stimulated PTE cells; assay type: cell-based, mouse; conditions: measured at 8 h, subconfluent PTE cells
Experimental: FIGS. 3A and 3B. Inhibition of inducible NO-synthase (iNOS) gene induction by OPN. A) Northern blot analysis of iNOS mRNA and 18s rRNA levels in primary mouse kidney epithelial cells 8 h after treatment. B) Accumulation of nitrite in the medium 24 h after treatment. Values are the mean±standard error from three separate plates. Lane 1: control; lanes 2, 4 and 5: stimulated with 100 ng/ml LPS plus 100 U/ml γIFN; lanes 3 and 4: treated with 1 pM OPN; lanes 5 and 6: treated with 100 pM OPN.
Northern blot analysis. Total RNA was isolated using the TRI reagent (Molecular Research Center, Cincinnati, Ohio). The RNA (5 μg) was fractionated on formaldehyde-agarose gels, blotted and probed using standard procedures (Sambrook et al., 1989, supra). The mouse cDNA corresponding to the macrophage inducible nitric oxide synthase gene (iNOS) has been described (Lyons, 1992, J. Biol. Chem. 267:6370-74).

iNOS protein = experiment: Immunofluorescence analysis of iNOS protein in PTE cells; assay type: cell-based, mouse; conditions: 100 pM OPN, LPS 100 ng/ml and γIFN 100 U/ml, 48 h
Experimental: FIGS. 4A-D. OPN-induced suppression of iNOS protein in PTE cells. Cells were fixed and permeabilized by incubation of 30 min with 0.4 mM lysophosphatidylcholine in 1% buffered formalin. After washing three times with phosphate-buffered saline, cells were blocked with 0.1% bovine serum albumin in phosphate-buffered saline and then incubated for 4 h first with a 1:10,000 dilution of rabbit peptide antibody to the C-terminal 10 amino acids of iNOS. After washing, the cells were incubated with FITC-conjugated goat-anti rabbit secondary antibody (Cappel, West Chester, Pa.). After an additional 30 min, the cells were washed and analyzed for fluorescence intensity using a Meridian ACAS anchored cell analysis system. A) Upper left, untreated control cells; B) upper right, cells treated for 48 h with LPS (100 ng/ml) and γIFN (100 U/ml); C) lower left, cells treated for 48 h with OPN (100 pM); D) lower right, cells treated for 48 h with LPS, γIFN and OPN. The color bar represents relative fluorescence intensity on the four-decade log scale with white being the most intense.

primary mouse PTE cells = experiment: Intracellular calcium mobilization (Indo-1 AM) in PTE cells; assay type: cell-based
Experimental: FIGS. 9A-D. Induction of calcium mobilization by ionomycin, angiotensin II and osteopontin in PTE cells. Cells were incubated with 1 μM Indo-1 AM [1-(2-amino-5-(6-carboxyindol-2-yl)phenoxy)-2-(2'-amino-5'-methylphenoxy)ethane-N,N,N',N'-tetraacetic acid) and analyzed on a Meridian 570 Anchored Cell Analysis System (ACAS) equipped with an Innova 90 5-W laser adjusted to an output of 100 mW. Calcium mobilization was quantified by scanning single 150×150 μm fields containing about 10 cells every 30 s for a total of 10 min and quantifying the emission at 500 nm (calcium-free Indo-1) and 400 nm (calcium-bound Indo-1). After 1 min, the cells were stimulated with (A) control, (B) 10 μM ionomycin, (C) […] angiotensin II, and (D) 2 nM or 0.1 nM OPN.
Measurement of intracellular calcium mobilization. Primary mouse PTE cells were subcultured onto collagen-coated Nunc coverglass chambers (Nunc, Inc., Naperville, Ill.). Intracellular calcium mobilization was monitored using a fluorescent, calcium-sensitive indicator Indo-1-acetoxymethyl ester (Indo-1 AM) (Molecular Probes, Eugene, Oreg.) and qualified on a Meridian 570 Anchored Cell Analysis (ACAS) equipped with an Innova 90-5W laser adjusted to an output of 100 mW. Cells were washed with HBSS containing 0.3% bovine serum albumin (BSA) and incubated with 1 μM Indo-1 AM at 37° C. for 30 min. Then, the cells were washed 3 times and 1 ml of HBSS containing 0.3% BSA was added. The calcium ratio was determined by scanning single 150×150 μm field containing about 10 cells every 30 sec for a total of 10 min and recording the emission at 500 nm (calcium-free Indo-1) and 400 nm (calcium-saturated Indo-1). Intracellular calcium concentrations were determined by generating a standard curve using a known calcium solution (Gardner et al., 1993, J. Leukocyte Biol. 53:190-196). All data were analyzed with Meridian ACAS statistical software.

osteoclasts = conditions: Zimolo et al. 1993; cited from earlier work
rabbit kidney PTE cells = conditions: primary cultures of rabbit kidney PTE cells; Norman et al. 1987; cited from earlier work

In the case of “OPN: Recombinant human osteopontin, secreted 44 kDa RGD-containing phosphoprotein, purified from transfected MH2 human embryonic kidney cells”, the “nitrite production relative to the LPS and γ-IFN-stimulated cells” value ([1]; 1 pM OPN added simultaneously with inducers) is reported as 45%, the “nitrite production relative to the LPS and γ-IFN-stimulated cells” value ([1]; 100 pM OPN added simultaneously with inducers) is reported as 24% and the “time-dependence of inhibition of NO production” value ([1]; OPN 100 pM added 60 min prior to γ-IFN and LPS, nitrite after 24 h) is reported as “more inhibitory than when added simultaneously”. The “effective concentration for suppression of NO production” value ([1]; confluent cells) was “required higher concentrations”, the “effective concentration for suppression of NO production” value ([1]; subconfluent PTE cells) was ~ 10 pM and the “effect on amount of A II-induced cNOS mRNA” value ([2]; OPN 0.1 nM or 1 pM with A II) was “only a modest effect”. The “effect on A II-induced nitrite production” value [3] was “almost completely blocked”, the “level of the 4 kb mRNA species (iNOS mRNA), normalized to 18 S rRNA” value ([4]; 1 pM OPN added simultaneously with LPS and γ-IFN) was 54% and the “level of the 4 kb mRNA species (iNOS mRNA), normalized to 18 S rRNA” value ([4]; 100 pM OPN added simultaneously with LPS and γ-IFN) was 31%. For the same molecule, the “iNOS protein concentration in stimulated cells” value (iNOS protein) was “diminished concentration of iNOS protein”, the “concentration dependence of calcium reduction” value (primary mouse PTE cells; 2 nM compared with 0.1 nM OPN) was “the smaller concentration of OPN was more potent in reducing calcium levels” and the calcium mobilization (primary mouse PTE cells; 2 nM or 0.1 nM OPN) was “a reduction in the cytosolic free calcium”.
In the case of Ac-PTVDVPDGRGDSLAYGLRSK-NH2 [OPP], the “effect on LPS and γ-IFN-induced nitrite (NO) production” value [1] is reported as “effective at reducing LPS and γ-IFN-induced NO production”.
For “OPN (purified from urine): OPN purified from urine, used by Zimolo et al. (cited)”, the “concentration raising intracellular free Ca++ level” value (osteoclasts) is given as 1 pM.
In the case of `CNC(=N)NCCC[C@H](N)C(=O)O` [L-NMA, N^G -methyl-L-arginine, reference compound], the “effect on LPS and γ-IFN-induced nitrite (NO) production” value [1] is reported as “Inhibition of nitrite accumulation” and the “effect on A II-induced nitrite production” value [3] is reported as “inhibited the nitrite production induced by A II”.
For “A II: angiotensin (the x-mer peptide produced from angiotensinogen), obtained from Sigma (DRVYIHPF; Angiotensin-2; UniProt P01019 25-32, looked up)”, the concentration necessary to induce a transient rise in cytosolic free calcium (rabbit kidney PTE cells) is listed as 5 µM, the “enhancement of cNOS mRNA” value ([2]; angiotensin 1 μM, densitometry relative to rRNA) is listed as 3.5 fold and the nitrite production [3] is listed as “dose-dependent increase in nitrite accumulation”. The calcium mobilization (primary mouse PTE cells) was “a fast and transient rise in cytosolic free calcium levels” and the calcium mobilization (primary mouse PTE cells; 1 μM, within 10 min) was “only a delayed and small transient response in calcium mobilization”.
With `C[C@H](CCC(=O)O)C[C@H](C)C[C@H](C)C(=O)/C=C(\O)[C@H](C)C[C@H](C)C/C=C/[C@@H](C)[C@@H](O)[C@@H](C)[C@@H](O)C[C@@H]1CC[C@@](C)([C@H]2CC[C@@](C)([C@@H](C)O)O2)O1` [Ionomycin] the “cNOS mRNA abundance” value ([2]; agent alone) was “greatly increase”, the nitrite production [3] was “increased nitrite production” and the calcium mobilization (primary mouse PTE cells; 10 μM ionomycin) was “an increase in cytosolic free calcium”.

Source: patent US5695761A, “Suppression of nitric oxide production by osteopontin” (Rutgers University, priority 1993, dated 1997)
